This note sets out measurements from patent publication US6262036A, “Method for inhibiting RNA translation using chimeric oligonucleoside compounds” (priority 2000, dated 2001).

The subject of series [1] is complementary synthetic RNA targets. The experiment in a line: Binding stability of backbone modified (CT)7A oligomers to RNA (Example 34).
Series [2] relates to complementary RNA targets. The experiment in a line: Tm of Rp-enriched versus racemic methylphosphonate oligomers with RNA (Example 33). The note with it: 2.4 μM total strand concentration, pH 7.2, 100 mM sodium chloride. In kind it is binding.
The subject of series [3] is complementary synthetic RNA target. Kind of series: Hybridization of chirally enriched and non-chiral oligomers to RNA targets (Example 32). In kind it is binding. The note with it: 1:1 with RNA, midpoint of sigmoidal transition at 260 nm. As to the method: Chirally enriched all-pyrimidine (C*T)7 A and all-purine (A*G)7 T MP-oligomers were prepared using either Rp - or Sp -dimeric units. Control oligomers were also prepared using the individual monomeric units. The asterisks indicate the positions of defined chirality.
Each oligomer was annealed to a complementary synthetic RNA target and then monitored by absorbance at 260 nm as a function of temperature. Sigmoidal transitions were observed corresponding to thermal denaturation of the hybridization complexes. The Tm values were determined at the midpoint of each sigmoidal transition. […] Thus, we anticipated that the data for each chirally enriched series would be applicable to double-stranded and triple-stranded MP/RNA helices, respectively.

[mp] = methylphosphonate linkage

With “2288-1: 5'-CT-CT-CT-CT-CT-CT-CT-A-3', racemic all-MP (CTCTCTCTCTCTCTA; all [mp], sugars by position and methylation of C not given here) [Oligomer 2288-1]”, the TM in series [1] (2.4 μM total strand concentration, pH 7.2, 100 mM sodium chloride) came out at 34.0 °C. In addition, the “K (37° C.) (binding constant KA)” value in series [1] (37° C., two-state model fit of thermal dissociation data) was 8.3 × 10^5. Also, the Tm in series [2] was 34.4 °C. In addition, in series [3], the “Tm (1:1, RNA)” value turned out to be 35.1 °C.
